Assay results as given in paper PMC8198049, “Synthesis and Evaluation of the Tetracyclic Ring-System of Isocryptolepine and Regioisomers for Antimalarial, Antiproliferative and Antimicrobial Activities” (Molecules, 2021).
Values after ≈ are worked out from the molar mass of the structure shown. Where a name gives a salt, the structure may show the parent alone. Read-outs that look alike come from different tables or passages of the source.

How the values were obtained:
[1] = Antiplasmodial imaging assay; format: cell-based, Plasmodium falciparum; conditions: human (HEK293) and Plasmodium falciparum (3D7)
Description: (§1) Compounds tested in the antiproliferative assays were tested in 11 dilution points (0.02 µM–40 µM or 0.04 µM–80 µM).
(§2) Antiplasmodial activity was determined as previously described by Duffy and Avery. […] After incubation, plates were stained with 4’,6-diamidino-2-phenylindole (DAPI) in a permeabilization buffer for 5 h at rt in the dark. Plates were imaged on the Opera confocal microplate image reader (PerkinElmer).

[2] = system: Plasmodium falciparum 3D7 strain; experiment: Antiplasmodial imaging assay; format: cell-based; conditions: P. falciparum 3D7, 72 h, mean ± standard deviation, two separate experiments; for IC50: Plasmodium falciparum
Description: as §1, §2

[3] = system: HCT116, MDA-MB-231 and PC-3; experiment: Antiproliferative assay, whole panel of cancer cell lines; format: cell-based, human
Description: (§3) Compounds tested in the antiproliferative assays were tested in 11 dilution points (0.02 µM–40 µM or 0.04 µM–80 µM). […] HCT116 cells were maintained in McCoy’s 5A media (Life Technologies, CA, USA), MDA-MB-231 cells were cultured in DMEM media (Life Technologies) with 10 mM HEPES (Life Technologies), whilst PC-3 cells were maintained in RPMI media (Life Technologies). All media were supplemented with 10% heat-inactivated fetal bovine serum (Australian source; Corning, CA, USA) and all cells were incubated at 37 °C in a humidified incubator with 5% CO2. Cells were seeded in 384-well plates (Greiner Bio-One, NC, USA) using the respective complete media. After 24 h cell seeding, compounds were added and antiproliferative activity was determined using the resazurin assay after 72 h compound incubation. Briefly, cells were incubated with 60 µM resazurin (Cayman, MI, USA) for 6 h at 37 °C and fluorescence signals were measured using a microplate reader (EnSight, PerkinElmer, Waltham, MA, USA).

[4] = Cytotoxicity assay (resazurin-based viability); format: cell-based; conditions: human, HEK293 cells, mean ± standard deviation, two separate experiments
Description: Fluorescence was measured using an EnSight plate reader (PerkinElmer, Waltham, MA, USA).

[5] = system: HCT116 (human colon cancer); experiment: Antiproliferative assay (resazurin); format: cell-based; conditions: for IC50: Homo sapiens, HCT-116, 72 h compound incubation, mean ± sem, two separate experiments
Description: as §3

[6] = system: MDA-MB-231 (human breast adenocarcinoma); experiment: Antiproliferative assay (resazurin); format: cell-based; conditions: for IC50: Homo sapiens, MDA-MB-231, 72 h compound incubation, mean ± sem, two separate experiments; for % at 80 µM (printed in MDA-MB-231 IC50 column): MDA-MB-231, 80 µM
Description: as §3

[7] = system: PC-3 (human prostate cancer); experiment: Antiproliferative assay (resazurin); format: cell-based; conditions: for IC50: Homo sapiens, 72 h compound incubation, mean ± sem, two separate experiments; for % at 40 µM (PC-3): PC-3, 40 µM; for % at 80 µM (PC-3): PC-3, 80 µM
Description: as §3

E. faecalis (ATCC 29122) = experiment: Bacterial growth inhibition assay; format: cell-based, Enterococcus faecialis; conditions: Enterococcus faecalis, ATCC29122
Description: (§4) The prepared samples were tested for in vitro antimicrobial activity against E. faecalis, E. coli, P. aeruginosa, S. aureus, Streptococcus agalactiae and S. epidermis using gentamycin as a reference compound.
(§5) To determine and quantify antimicrobial activity, a bacteria growth inhibition assay in liquid media was executed. Compounds 2–3, 4, 8–10, 13–14, 16, 18, and 20 were tested against Staphylococcus aureus (ATCC 25923), Escherichia coli (ATCC 259233), Enterococcus faecialis (ATCC 29122), Pseudomonas aeruginosa (ATCC 27853) and Streptococcus agalactiae (ATCC 12386); all strains from LGC Standards (Teddington, UK). S. aureus, E. coli, and P. aeruginosa were grown in Muller Hinton broth (275730, Becton, Franklin Lakes, NJ, USA). E. faecalis and S. agalactiae were cultured in brain hearth infusion broth (53286, Sigma, St Louise, MO, USA). Fresh bacterial colonies were transferred in the respective medium and incubated at 37 °C overnight. The bacterial cultures were diluted to a culture density representing the log phase and µL/well were pipetted into a 96-well microtiter plate (734–2097, NunclonTM, Thermo Scientific, Waltham, MA, USA). The final cell density was 1500–15.000 colony forming units/well. The compound was diluted in 2% (v/v) DMSO in ddH2O, providing a final assay concentration of 50% of the prepared sample, since 50 µL of sample in DMSO/water were added to 50 µL bacterial culture. After adding the samples to the plates, they were incubated overnight at 37 °C and the growth was determined by measuring the optical density at λ = 600 nm (OD600) with a 1420 Multilabel Counter VICTOR3TM (Perkin Elmer, Waltham, MA, USA). A water sample was used as a reference control, growth medium without bacteria was used as a negative control and dilution series of gentamycin (A2712, Merck, Darmstadt, DE) from 32 to 0.01 µg/mL was used as positive control and visually inspected for bacterial growth. The positive control was used as a system suitability test and the results of the antimicrobial assay were only considered valid when positive control was passed. The final concentration of DMSO in the assays was ≤2% (v/v) and was known to have no effect in the tested bacteria. The data was processed using GraphPad Prism 8.

S. aureus (ATCC 25923) = experiment: Bacterial growth inhibition assay; format: cell-based, Staphylococcus aureus; conditions: Staphylococcus aureus, ATCC25923
Description: as §4, §5

[8] = system: Streptococcus agalactiae (ATCC 12386); experiment: Bacterial growth inhibition assay; format: cell-based; conditions: ATCC12386
Description: as §4, §5

[9] = HEK293 cells versus Plasmodium falciparum 3D7 culture, HEK293 vs 3D7, read-out: SI (selectivity index = cytotoxicity in HEK293/activity in 3D7)

SMILES	selectivity ratio at 72 h [1, 9]	IC50 [2]	IC50 at 72 h [4]	IC50 [5]	IC50 [6]	IC50 [7]	also measured
C[C@H]1[C@@H](O)O[C@@H]2O[C@@]3(C)CC[C@H]4[C@H](C)CC[C@@H]1[C@@]24OO3 [DHA, dihydroartemisinin, reference compound]	74	1 ± 0.07 nM	–	–	–	–	–
C[n+]1cccc2c3c(ccc21)[nH]c1ccccc13 (as salt: hydroiodid) [Compound 10, 4-Methyl-7H-pyrido[2,3-c]carbazolium Iodide]	–	–	–	–	–	–	melting point: 284 to 286 °C
C[n+]1cccc2c3[nH]c4ccccc4c3ccc21 [Compound 21, 4-Methyl-11H-pyrido[3,2-a]carbazolium Iodide]	–	380 ± 0.5 nM	–	–	–	–	activity against the panel of cancer cell lines [3]: no activity
CCN(CC)CCCC(C)Nc1ccnc2cc(Cl)ccc12 (stereo not shown) [Chloroquine, chloroquine, reference compound]	–	–	> 4000 nM	–	–	–	–
C=CCn1cc2c3ccccc3nc-2c2ccccc21 [Compound 3c, 5-Allyl-5H-indolo[3,2-c]quinoline]	2.6	1200 ± 32 nM	3150 ± 40 nM	1240 ± 80 nM	3060 ± 467 nM	1300 ± 51 nM	–
c1cnc2c(c1)ccc1[nH]c3ccccc3c12 [Compound 20, 7H-Pyrido[3,2-c]carbazole]	–	2410 ± 42 nM	–	17000 nM	16400 nM	–	% at 40 µM (PC-3) [7]: 47% at 40 µM
C[n+]1cccc2c3[nH]c4ccccc4c3ccc21 (as salt: hydroiodid) [Compound 21, 4-Methyl-11H-pyrido[3,2-a]carbazolium Iodide]	–	–	–	–	–	–	melting point: 279 to 280 °C
c1ccc2nc3[nH]c4ccccc4c3cc2c1 [Compound 13, 6H-Indolo[2,3-b]quinoline]	–	–	–	–	–	–	3D7 IC50 [2]: no antiplasmodial inhibition; activity against the panel of cancer cell lines [3]: inactive
CCn1cc2c3ccccc3nc-2c2ccccc21 [Compound 3b, 5-Ethyl-5H-indolo[3,2-c]quinoline]	2.3	1318 ± 5 nM	3080 ± 49 nM	742 ± 11 nM	998 ± 300 nM	2440 ± 94 nM	melting point: 198 °C
COc1cccc2c1C(=O)c1c(O)c3c(c(O)c1C2=O)C[C@@](O)(C(=O)CO)C[C@@H]3O[C@H]1C[C@H](N)[C@H](O)[C@H](C)O1 [Doxorubicin, reference compound]	–	–	–	150 nM	590 nM	830 nM	–
COc1ccc(C[C@H](N)C(=O)N[C@H]2[C@@H](O)[C@H](n3cnc4c(N(C)C)ncnc43)O[C@@H]2CO)cc1 [Puromycin, puromycin, reference compound]	–	93 ± 2 nM	3 ± 3 nM	85 nM	300 nM	270 nM	selectivity ratio at 72 h [1]: 0.03
c1cnc2c(c1)ccc1c3ccccc3[nH]c12 [Compound 18, 11H-Pyrido[2,3-a]carbazole]	–	–	–	–	–	–	melting point: 164 °C
CN1C=Cc2nc3ccccc3c3cccc1c23 [Compound 8a, 4-Methyl-4H-pyrido[4,3,2-gh]phenanthridine]	4.4	1698 ± 5 nM	7410 ± 207 nM	444 ± 52 nM	360 ± 51 nM	2570 ± 114 nM	MIC (E. faecalis (ATCC 29122)): 75 µM (≈ 17.4 µg/mL); MIC (S. aureus (ATCC 25923)): 75 µM (≈ 17.4 µg/mL); melting point: 182 to 183 °C
Cn1c2nc3ccccc3c-2cc2ccccc21 [Neocryptolepine (2), Neocryptolepine]	> 2.8	7249 ± 6 nM	> 20000 nM	6220 ± 90 nM	10400 nM	–	% at 80 µM (PC-3) [7]: 27% at 80 µM; MIC [8]: 100 µM (≈ 23.2 µg/mL)
c1ccc2c(c1)[nH]c1c3cccnc3ccc21 [Compound 16, 11H-pyrido[3,2-a] carbazole]	–	–	–	–	–	–	3D7 IC50 ([2]; listed as 15): little to no activity; % at 80 µM (printed in HCT116 IC50 column) ([5]; HCT116, 80 µM): 82% at 80 µM; % at 80 µM (printed in MDA-MB-231 IC50 column) [6]: 80% at 80 µM
C[n+]1cccc2c3c(ccc21)[nH]c1ccccc13 [Compound 10, 4-Methyl-7H-pyrido[2,3-c]carbazolium Iodide]	214	128 ± 2 nM	–	–	–	–	% at 40 µM (printed in HCT116 IC50 column) ([5]; HCT116, 40 µM): 38% at 40 µM; % at 40 µM (printed in MDA-MB-231 IC50 column) ([6]; MDA-MB-231, 40 µM): 24% at 40 µM; % at 40 µM (PC-3) [7]: 36% at 40 µM; activity against the panel of cancer cell lines [3]: no activity
c1ccc2c(c1)Nc1ccnc3cccc-2c13 [Compound 4a, 7H-pyrido[4,3,2-gh]phenanthridine]	5.2	548 ± 3 nM	2830 ± 92 nM	721 ± 27 nM	594 ± 140 nM	1630 ± 173 nM	MIC (E. faecalis (ATCC 29122)): 100 µM (≈ 21.8 µg/mL); MIC (S. aureus (ATCC 25923)): 100 µM (≈ 21.8 µg/mL)
c1ccc2c(c1)ncc1c3ccccc3[nH]c21 [Compound 14, 11H-indolo[3,2-c]quinoline]	18.9	977 ± 11 nM	18460 ± 183 nM	3570 ± 309 nM	–	–	% at 80 µM (printed in MDA-MB-231 IC50 column) [6]: 36% at 80 µM ^e; % at 80 µM (PC-3) [7]: 30% at 80 µM ^f; activity against the panel of cancer cell lines [3]: poor activity
